According to patent publication US10821080B2, “Microencapsulation process with solvent and salt” (Evonik Corporation, priority 2008, dated 2020):

Experiment: Equilibrium/saturation study of solvent solubility in PVA solutions with increasing salt concentration
Format: physicochemical
Method: An equilibrium/saturation study was performed to measure solvent solubilities in PVA solutions in increasing salt concentration levels. The saturation solubility in weight % of ethyl acetate and methylene chloride were individually tested with varying sodium chloride weight % in a 2% PVA aqueous solution. […] At about 15 weight % sodium chloride contention, the PVA began to salt out of the solution.

CCOC(C)=O [ethyl acetate]
saturation solubility in weight % as the sodium chloride content was increased: decreased
